Measurements: PubChem BioAssay (NCI)
“And” between values parts separate entries of the source, which are not always exact repeats. Identical values can stand only once.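 Growth conditions: 96-well plates. Treatment: test compound, 48 hours, 5 concentrations. Analysis: linear interpolation between bracketing concentrations; unreached endpoints set to highest concentration. GI50 = concentration required for 50% inhibition of growth. TGI denotes the concentration required for complete inhibition of growth.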

Assays:
Test in all cases: NCI anticancer screen, dose series, 48 h
786-0 renal = tested on: 786-0 renal
COLO 205 colon = tested on: COLO 205 colon
HCC-2998 colon = tested on: HCC-2998 colon
HCT-116 colon = tested on: HCT-116 colon
HT29 colon = tested on: HT29 colon
LOX IMVI melanoma = tested on: LOX IMVI melanoma
M14 melanoma = tested on: M14 melanoma
NCI-H226 lung = tested on: NCI-H226 lung
OVCAR-3 ovarian = tested on: OVCAR-3 ovarian
SF-539 CNS = tested on: SF-539 CNS
SK-MEL-28 melanoma = tested on: SK-MEL-28 melanoma
SN12C renal = tested on: SN12C renal

| Compound | TGI (786-0 renal) | TGI (COLO 205 colon) | TGI (HCC-2998 colon) | TGI (HCT-116 colon) | TGI (HT29 colon) | TGI (LOX IMVI melanoma) | TGI (M14 melanoma) | TGI (NCI-H226 lung) | TGI (OVCAR-3 ovarian) | TGI (SF-539 CNS) | TGI (SK-MEL-28 melanoma) | TGI (SN12C renal) | GI50 (LOX IMVI melanoma) | GI50 (M14 melanoma) | GI50 (OVCAR-3 ovarian) | GI50 (SF-539 CNS) | GI50 (SK-MEL-28 melanoma) |
| --- | --- | --- | --- | --- | --- | --- | --- | --- | --- | --- | --- | --- | --- | --- | --- | --- | --- |
| COc1ccc(N=C/C=C/Nc2ccc(OC)cc2)cc1 | 15.6 µM | 16.3 µM | 22.1 µM | 11.8 µM | 8.31 µM | 5.45 µM | 23.2 µM | 32.6 µM | 3.45 µM | 24.1 µM | 29.1 µM | 8.86 µM |  |  |  |  |  |
| CC(=O)Oc1ccc2c(c1)CC[C@@H]1C2[C@@H](O[N+](=O)[O-])C[C@@]2(C)C1CC[C@@H]2O (some centres not stated) | > 100 µM | > 88.7 µM | 46.2 µM | > 100 µM | > 76.6 µM | > 81.2 µM | > 100 µM | > 100 µM | > 86.9 µM | 72.6 µM | > 100 µM | > 100 µM |  |  |  |  |  |
| COC(=O)c1ccc(OCc2ccc3oc(=O)c(-c4ccccc4)nc3c2)cc1 | 66.5 µM | > 100 µM | > 100 µM | > 100 µM | > 100 µM | > 100 µM | > 100 µM | > 100 µM | > 100 µM | > 100 µM | > 100 µM | > 100 µM |  |  |  |  |  |
| COC(=O)CC1C2CC3C(C2=O)C13 (configuration not stated) | > 100 µM | > 100 µM | > 100 µM | > 100 µM | > 100 µM | > 100 µM | > 100 µM | > 100 µM | > 100 µM | > 100 µM | > 100 µM | > 100 µM |  |  |  |  |  |
| NC1CCC(c2cc3ccccc3s2)(N2CCCCC2)CC1 (configuration not stated) | 2.83 µM | 3.19 µM | 2.21 µM | 3.05 µM | 2.45 µM | 2.84 µM | 2.88 µM | 43.7 µM | 2.81 µM | 4.59 µM | 3.11 µM | 3.1 µM |  |  |  |  |  |
| COC1C(O)=C2C(=O)OC(C)(O)/C=C/C=C\C=C/C=C/C(c3ccccc3)NC(=O)/C=C/C=C/C=C/C=C/C2(C)C1O (configuration not stated) | 0.0234 µM and 0.0419 µM | 0.0166 µM | 0.146 µM and 0.048 µM | 0.0724 µM and 0.0739 µM | 0.0161 µM and 0.0687 µM | 0.16 µM and 0.234 µM | 0.447 µM and 0.19 µM | 0.156 µM | 0.218 µM and 0.349 µM | 0.112 µM and 0.165 µM | 0.175 µM and 0.927 µM | 0.0649 µM and 0.0906 µM | 0.0264 µM | 0.0536 µM | 0.114 µM | 0.0307 µM | 0.257 µM |
| CN(C)Cc1cc(N=Nc2ccc(Cl)c(Cl)c2)ccc1O | 24.2 µM | 8.26 µM | 24.4 µM | 29.8 µM | 20.4 µM | 17.9 µM | 31.9 µM | 40.7 µM | 19.2 µM | 38.5 µM | 26.5 µM | 27.8 µM |  |  |  |  |  |
| CC[C@H]1C=CCC[C@@]2(C[C@@H]3CC[C@@H]4[C@H](C(=O)OCCCCCCCCCCCCCCCC(=O)N(CCCN)C[C@@H](O)CCN)[C@]5(CCC[C@@H](C)O5)NC(=[N+]34)N2)O1 | 1.04 µM | 1.65 µM | 0.793 µM | 1.16 µM | 1.23 µM | 0.721 µM | 0.0599 µM | 3.66 µM | > 10 µM | 2.37 µM | 2.9 µM | > 5.62 µM |  |  |  |  |  |
| COc1ccc(CN=CN/C(C#N)=C(\N)C#N)cc1OC | > 100 µM | > 100 µM | > 100 µM | > 100 µM | > 100 µM | > 100 µM | > 100 µM | > 100 µM | > 100 µM | > 100 µM | > 100 µM | > 100 µM |  |  |  |  |  |
| COc1ccc(-c2cn3c(n2)sc2cc(C)ccc23)cc1 | 59.8 µM | 19.6 µM | 69.6 µM | > 100 µM | > 100 µM | > 100 µM | > 100 µM | 62.2 µM | > 100 µM | 33.7 µM | > 100 µM | 88.7 µM |  |  |  |  |  |
| O=C(CCCC(=O)N1CC(CCl)c2ccc([N+](=O)[O-])cc21)N1CC(CCl)c2ccc([N+](=O)[O-])cc21 (configuration not stated) | > 100 µM | > 100 µM | > 100 µM | > 100 µM | > 100 µM | > 100 µM | > 100 µM | > 100 µM | > 100 µM | > 100 µM | > 100 µM | > 100 µM |  |  |  |  |  |
| COc1cc2[nH]c(-c3ccccc3)cc(=O)c2cc1OC | > 100 µM | > 33.3 µM | > 87.4 µM | > 49.7 µM | 56.7 µM | > 100 µM | > 76.2 µM | 53.6 µM | > 100 µM | 60.5 µM | > 100 µM | > 100 µM |  |  |  |  |  |
| COc1ccc2c(c1)CC[C@@H]1[C@@H]2CC[C@]2(C)/C(=N/OCCN3CCCCC3)CC[C@@H]12 | 3.41 µM | 3.18 µM | 8.26 µM | 5.67 µM | 3.67 µM | 3.8 µM | 5.88 µM | 18.7 µM | 15 µM | 7.64 µM | 5 µM | 17 µM |  |  |  |  |  |
| Cn1c2ccccc2n2c3nc4ccccc4nc3c(C#N)c12 | > 100 µM | > 100 µM | > 79.1 µM | > 100 µM | > 100 µM | > 100 µM | > 100 µM | > 100 µM | > 100 µM | > 100 µM | > 100 µM | > 100 µM |  |  |  |  |  |
| COC(=O)C(Cc1ccccc1)NC(=O)CNC(=O)CSc1nnc(COc2ccc(Cl)cc2)n1-c1ccccc1 (configuration not stated) | 30.5 µM | 31.9 µM | 24.7 µM | 33 µM | 35.3 µM | 13.8 µM | 31.7 µM | 36.5 µM | 30.9 µM | 34.3 µM | 34.6 µM | 32.5 µM |  |  |  |  |  |
| CN(C)CCCOC(=O)C(O)(Cc1ccccc1)C1CC1 (configuration not stated) | > 100 µM | > 100 µM | > 100 µM | > 100 µM | > 100 µM | > 100 µM | > 100 µM | > 100 µM | > 100 µM | > 100 µM | > 100 µM | > 100 µM |  |  |  |  |  |
| COC(=O)c1c(O)ccc2c1c1c(n2C)C(=O)c2ccccc2C1=O | 57 µM | > 100 µM | 49.3 µM | 32.1 µM | > 100 µM | > 100 µM | > 100 µM | > 100 µM | > 100 µM | 65.1 µM | > 100 µM | > 100 µM |  |  |  |  |  |
| CCn1c2c(c3c(C(=O)OC)c(O)ccc31)C(=O)c1ccccc1C2=O | 25.4 µM | 33 µM | 34.9 µM | 26.5 µM | 36.5 µM | 71.6 µM | 28.3 µM | 34 µM | 63.1 µM | 36 µM | 42.6 µM | 29.4 µM |  |  |  |  |  |
| COC(=O)/C=C1/OC(c2ccccc2)=C(Cl)C1=O | 33.7 µM | 30.1 µM | 38.9 µM | 26.3 µM | 48.4 µM | 26.8 µM | 35.2 µM | > 84.6 µM | 33.8 µM | 47.1 µM | 42.5 µM | > 60.1 µM |  |  |  |  |  |
| CC1(C)N=C(N)N=C(N)N1c1cccc(CSc2ccccc2)c1 | > 100 µM | 29.1 µM | > 100 µM | > 100 µM | > 100 µM | > 100 µM | 11.2 µM | > 100 µM | > 100 µM | > 100 µM | > 100 µM | > 100 µM |  |  |  |  |  |
| COC1CCC(OC2CC(C3(C)CCC4(CC(O)C(C)C(C(C)/C=C(\C)C(=O)C(C)CC(C)C(=O)O)O4)O3)OC3(OC(C4OC(O)(CO)C(C)CC4C)CC3C)C2C)OC1C (configuration not stated) | 1.21 µM | 0.175 µM | 1.61 µM | 1.66 µM | 2.19 µM | 0.941 µM | 0.287 µM | 3.13 µM | 2.58 µM | 1.17 µM | 0.189 µM | 1.55 µM |  |  |  |  |  |
| COc1cc(C2c3cc4c(cc3OC(N3CCOCC3)C2C)OCO4)cc(OC)c1O (configuration not stated) | > 50.4 µM | 41.9 µM | > 57.8 µM | 11.4 µM | 27.7 µM | > 100 µM | > 100 µM | > 66.3 µM | > 34 µM | 22 µM | > 48.6 µM | 54.3 µM |  |  |  |  |  |
| COc1cccc(-c2cc(=O)c3cc(C)cnc3[nH]2)c1 | > 25.3 µM | 1.39 µM | 2.67 µM | > 40 µM | 0.191 µM | > 100 µM | > 69.6 µM | 0.339 µM | > 100 µM | > 100 µM | > 100 µM | > 33.9 µM |  |  |  |  |  |
| C=C(Br)CN(C#N)CC(=C)Br | > 100 µM | > 100 µM | > 100 µM | > 100 µM | > 100 µM | > 100 µM | > 100 µM | > 100 µM | > 100 µM | > 100 µM | > 100 µM | > 100 µM |  |  |  |  |  |
| CCCCCc1c(CCCC)c(=O)[nH]c2cc(CNCC(OC)OC)ccc12 | 18.1 µM | 6.24 µM | 7.62 µM | 18.9 µM | 12.4 µM | 18.8 µM | 8.1 µM | 40.6 µM | 32.3 µM | 28.4 µM | 12.2 µM | 28.1 µM |  |  |  |  |  |
| O=C1CC(O)c2c(Cl)sc(Cl)c21 (configuration not stated) | 11.2 µM | 14.6 µM | 46.3 µM | 13.8 µM | 10 µM | 5.24 µM | 32.7 µM | 36.6 µM | 12.9 µM | 22.9 µM | 13.5 µM | > 48.6 µM |  |  |  |  |  |
